In patent US11660280B2, “Treatment of drug resistant gliomas” (OKLAHOMA MEDICAL RESEARCH FOUNDATION, priority 2017, dated 2023):

Legend:
[1] = system: MGMT; test: ELISA protein level in human GBM cell lysates; format: cell-based
Experimental: (§1) ELISA for HIF-1a, MPG and MGMT. Protein expressions were assessed in all six glioma cell lines for all four groups of treatment (cell alone, cells with TMZ, cells with OKN, cells with combined OKN and TMZ). Cells were lysed before assaying. In brief, cells were washed by cold PBS gently, and then detached with trypsin, and collected by centrifugation at 1,000×g for 5 minutes. Then, cells were washed three times in cold PBS, then suspended in fresh lysis buffer. Lysates were centrifuged at 1,500×g for 10 minutes at 2-8° C. to remove cellular debris.
(§2) The assay is based on the sandwich ELISA principle. Each well of the supplied microtiter plate has been pre-coated with a target specific capture antibody. Standards or samples are added to the wells and the target antigen binds to the capture antibody. Unbound Standard or sample is washed away. A biotin-conjugated detection antibody is then added which binds to the captured antigen. Unbound detection antibody is washed away. An Avidin-Horseradish Peroxidase (HRP) conjugate is then added which binds to the biotin. Unbound Avidin-HRP conjugate is washed away. A TMB substrate is then added which reacts with the HRP enzyme resulting in color development. A sulfuric acid stop solution is added to terminate color development reaction and then the optical density (OD) of the well is measured at a wavelength of 450 nm±2 nm. The OD of an unknown sample can then be compared to an OD standard curve generated using known antigen concentrations in order to determine its antigen concentration.
(§3) The antigen concentration determined from ELISA was then normalized to the total protein concentration of each cell lysate in order to have comparison between groups. ELISA Kits for N-Methylpurine DNA Glycosylase (MPG) and for Hypoxia Inducible Factor 1 Alpha (HIF1a) were purchased from CLOUD-CLONE CORP.(CCC) and for Human MGMT from LifeSpan Biosciences, Inc.

[2] = system: MPG; test: ELISA protein level in human GBM cell lysates; format: cell-based
Experimental: as §1, §2, §3

[3] = system: HIF-1α; test: ELISA protein level in human GBM cell lysates; format: cell-based
Experimental: as §1, §2, §3

[4] = system: human G55 xenograft; test: Orthotopic G55 human GBM xenograft in nude mice (survival, MRI tumor volume, perfusion rCBF); format: in vivo, mouse
Experimental: Mice and Treatments. Animal studies were conducted in accordance to the OMRF IACUC (Institutional Animal Care and Use Committee) policies, which follow NIH guidelines. Two-month-old male nude mice (Hsd:Athymic Nude-Foxnlnu mice; Harlan Inc., Indianapolis, Ind.) were implanted intra-cerebrally with human G55 xenograft cells (1×10^7) per mL suspended in 4 μL in cell culture media of 1% aragose solution. Once tumors reached 10-15 mm^3 (determined via MRI), mice were either treated every 3 days with OKN-007 (150 mg/kg; via drinking water continuously) or TMZ (30 mg/kg via gavage every 3 days). TMZ was dissolved in 5% DMSO and 5% solutol-15 in sterile saline. Mice were treated until the tumor reached 100-150 mm^3 or for a total of up to 60 days after tumors were detected by MRI (>5 mm^3).
MRI. MRI experiments were performed on a Bruker Bio-spec 7.0 Tesla/30-cm horizontal-bore magnet imaging system. […] T2-weighted imaging was obtained, and tumor volumes were calculated from MRI datasets.
Perfusion imaging. In order to assess microvascular alterations associated with tumor capillaries, the perfusion imaging method, arterial spin labeling (ASL), was used. Perfusion maps were obtained on a single axial slice of the brain located on the point of the rostro-caudal axis where the tumor has the largest cross-section. Five regions of interest (ROIs) were manually outlined around the tumor, and appropriate ROIs were also taken from the contralateral side of the brain for comparison purposes. To calculate the differences in rCBF values, tumor rCBF values were obtained at late (days 18-26 following intracerebral implantation of cells for untreated mice) and early (days 10-13 following cell implantation) tumor stages, and normalized to rCBF values in the contralateral brain region of corresponding animals.
Statistical analyses. Survival curves were analyzed using Kaplan-Meier curves. Tumor volumes, changes in normalized rCBF, and LBP levels were compared by two-way ANOVA with multiple comparisons. Data were represented as mean±SD, and P-values of either *0.05, **0.01, ***0.001, and ****0.0001 were considered statistically significant.
Mice and Treatments. Animal studies were conducted in accordance to the OMRF IACUC (Institutional Animal Care and Use Committee) policies, which follow NIH guidelines. […] Once tumors reached 10-15 mm^3 (determined via MRI), mice were either treated daily with OKN-007 in the drinking water (150 mg/kg; 0.20% w/v for a 20 g mouse), or every 3 days with TMZ (30 mg/kg). […] Water bottles were weighed, and the amount of OKN-007 consumed per mouse was determined. […]

[5] = Solubility in water; format: physicochemical; details: free acid
[6] = tested in vivo; cited from earlier work
[7] = system: LBP (lipopolysaccharide binding protein); test: LBP ELISA in tumor tissue and serum of F98 glioma-bearing rats; format: in vivo, rat
Source text: The inventor also discovered a potential biomarker, LBP (lipopolysaccharide binding protein), that is elevated in tumors of rat F98 glioma-bearing rats (assessed by ELISA), and in GBM human tissue samples (assessed by immunohistochemistry). […] The inventor used an ELISA kit for LBP to assess this biomarker as an efficacy marker in both G55-tumor-bearing mice in both tumor tissue and blood serum, either untreated or treated with TMZ, OKN-007 or TMZ +OKN-007.
Mice and Treatments. Animal studies were conducted in accordance to the OMRF IACUC (Institutional Animal Care and Use Committee) policies, which follow NIH guidelines. For the F98 rat glioma cell implantation model, F98 cells (10^5 in 10-μ1 volume) were intracerebrally implanted with a stereotaxic device (2 mm lateral and 2 mm anterior to the bregma, and at a 3 mm depth) in a total of 15 Fischer 344 rats (male 200-250 gm). The animals were divided into two groups once tumors reached 10-20 mm^3 in volume (as determined by MRI): OKN-007 treated (n=8) and untreated (UT) (n=7) groups. […] Once tumors reached 10-15 mm^3 (determined via MRI), mice were either treated daily with OKN-007 in the drinking water (150 mg/kg; 0.20% w/v for a 20 g mouse), or every 3 days with TMZ (30 mg/kg). […] Water bottles were weighed, and the amount of OKN-007 consumed per mouse was determined. […]

[8] = system: TGFβ1; test: TGFβ1 protein levels (IHC, ELISA) in F98 gliomas; format: in vivo, rat
Experimental: Mice and Treatments. Animal studies were conducted in accordance to the OMRF IACUC (Institutional Animal Care and Use Committee) policies, which follow NIH guidelines. For the F98 rat glioma cell implantation model, F98 cells (10^5 in 10-μ1 volume) were intracerebrally implanted with a stereotaxic device (2 mm lateral and 2 mm anterior to the bregma, and at a 3 mm depth) in a total of 15 Fischer 344 rats (male 200-250 gm). The animals were divided into two groups once tumors reached 10-20 mm^3 in volume (as determined by MRI): OKN-007 treated (n=8) and untreated (UT) (n=7) groups. Rats were treated until tumors reached 200-250 mm^3 in volume or for a total of 4-6 weeks. For the G55 GBM cell implantation model, two-month-old male nude mice (Hsd:Athymic Nude-Foxnlnu mice; Harlan Inc., Indianapolis, IN) were implanted intracerebrally with human G55 xenograft cells (1×10^6) per mL suspended in 4 μL in cell culture media of 1% agarose solution. Once tumors reached 10-15 mm^3 (determined via MRI), mice were either treated daily with OKN-007 in the drinking water (150 mg/kg; 0.20% w/v for a 20 g mouse), or every 3 days with TMZ (30 mg/kg). OKN-007 was dissolved in water and made fresh every 2 days. Water bottles were weighed, and the amount of OKN-007 consumed per mouse was determined. […] The average intake of OKN-007 was approximately 140-150 mg/kg/day/mouse. […]

## CC(C)(C)[N+]([O-])=Cc1ccc(S(=O)(=O)O)cc1S(=O)(=O)O [OKN-007, 2,4-disulfonyl phenyl tert-butyl nitrone]
[1]; G55 cells, UT 0.37
  ELISA protein level MGMT: 0.31 ng/mg cell lysate
[1]; LN18 cells, UT 1.23
  ELISA protein level MGMT: 0.98 ng/mg cell lysate
[1]; LN229 cells, UT 0.67
  ELISA protein level MGMT: 0.69 ng/mg cell lysate
[1]; T98 cells, UT 0.62
  ELISA protein level MGMT: 0.84 ng/mg cell lysate
[1]; U138 cells, UT 0.77
  ELISA protein level MGMT: 0.75 ng/mg cell lysate
[1]; U251 cells, UT 0.92
  ELISA protein level MGMT: 0.91 ng/mg cell lysate
[2]; G55 cells, UT 1.15
  ELISA protein level MPG: 1.41 ng/mg cell lysate
[2]; LN18 cells, UT 2.18
  ELISA protein level MPG: 2.38 ng/mg cell lysate
[2]; LN229 cells, UT 2.34
  ELISA protein level MPG: 1.88 ng/mg cell lysate
[2]; T98 cells, UT 3.04
  ELISA protein level MPG: 3.61 ng/mg cell lysate
[2]; U138 cells, UT 1.30
  ELISA protein level MPG: 1.22 ng/mg cell lysate
[2]; U251 cells, UT 2.70
  ELISA protein level MPG: 2.77 ng/mg cell lysate
[3]; G55 cells, UT 0.14
  ELISA protein level HIF-1α: 0.19 ng/mg cell lysate
[3]; LN18 cells, UT 0 76
  ELISA protein level HIF-1α: 0.92 ng/mg cell lysate
[3]; LN229 cells, UT 0.68
  ELISA protein level HIF-1α: 0.66 ng/mg cell lysate
[3]; T98 cells, UT 0.42
  ELISA protein level HIF-1α: 0.58 ng/mg cell lysate
[3]; U138 cells, UT 0.40
  ELISA protein level HIF-1α: 0.33 ng/mg cell lysate
[3]; U251 cells, UT 0.30
  ELISA protein level HIF-1α: 0.61 ng/mg cell lysate
[4]; G55 glioma-bearing nude mice, OKN-007 150 mg/kg in drinking water, TMZ 30 mg/kg gavage every 3 days, n=5
  percent of treated mice alive 60 days following tumor detection: 20%
[4]; MRI at 19-22 days following tumor detection, G55 glioma-bearing mice
  tumor volumes compared to UT mice: significantly decreased tumor volumes
[4]; last MRI time-point for each treatment group
  tumor volumes compared to UT mice: no significant difference in tumor volumes
[4]; perfusion MRI, no significant differences between treated groups
  tumor perfusion rates compared to TMZ treatment: more normalized perfusion rates
[5]
  solubility in water: greater than 1 gram/ml
[6]
  efficacy as compared to PBN: unexpected increase in efficacy
  potency as compared to PBN: increase in potency
  toxicity as compared to PBN: marked and highly significant decrease in toxicity
[7]; F98 glioma bearing rats, p<0.0001
  LBP levels in tumor tissues compared to untreated gliomas: significant decrease in LBP levels
[7]; F98 glioma-bearing rats, p<0.001
  serum levels of LBP compared to untreated tumor-bearing rats: significantly lower
[8]; F98 gliomas
  TGFβ1 protein levels by immunohistochemistry compared to UT tumors: substantially reduced
[8]; F98 tumor tissue lysates, p<0.001
  TGFβ1 protein expression by ELISA compared to UT tumors: significantly decreased
